# Experimental data published in patent US6437128B1, “Cribrostatins 3-5” (Arizona Board of Regents, priority 2001, dated 2002).
# What was measured:
# U251 = assay: NCI 60-cell screen; assay type: cell-based, human; details: Homo sapiens, U-251, averaged, quadruplicate, upper limit 10^−5 M, read-out: negative log10 GI50 (converted)
# LOX IMVI = assay: NCI 60-cell screen; assay type: cell-based, human; details: Homo sapiens, averaged, quadruplicate, upper limit 10^−5 M, read-out: negative log10 GI50 (converted)
# RXF-393 = assay: NCI 60-cell screen; assay type: cell-based, human; details: Homo sapiens, averaged, quadruplicate, upper limit 10^−5 M, read-out: negative log10 GI50 (converted)
# [1] = test system: Stenotrophomonas maltophilia (ATCC 13637); assay: Antimicrobial disk diffusion; assay type: cell-based
# [2] = test system: Bacillus subtilis (Presque Isle 620); assay: Antimicrobial disk diffusion; assay type: cell-based; details: listed as 5
# SN12C = assay: NCI 60-cell screen; assay type: cell-based, human; details: Homo sapiens, averaged, quadruplicate, upper limit 10^−5 M, read-out: negative log10 GI50 (converted)
# T-47D = assay: NCI 60-cell screen; assay type: cell-based, human; details: Homo sapiens, T47D, averaged, quadruplicate, upper limit 10^−5 M, read-out: negative log10 GI50 (converted)
# SNB-75 = assay: NCI 60-cell screen; assay type: cell-based, human; details: Homo sapiens, averaged, quadruplicate, upper limit 10^−5 M, read-out: negative log10 GI50 (converted)
# A549/ATCC = assay: NCI 60-cell screen; assay type: cell-based, human; details: Homo sapiens, averaged, quadruplicate, upper limit 10^−5 M, read-out: negative log10 GI50 (converted)
# [3] = test system: Micrococcus luteus (Presque Isle 456); assay: Antimicrobial disk diffusion; assay type: cell-based; details: listed as 5
# [4] = test system: Invasive S. pneumoniae (clinical isolate); assay: Antimicrobial disk diffusion; assay type: cell-based
# SF-539 = assay: NCI 60-cell screen; assay type: cell-based, human; details: Homo sapiens, averaged, quadruplicate, upper limit 10^−5 M, read-out: negative log10 GI50 (converted)
# SF-295 = assay: NCI 60-cell screen; assay type: cell-based, human; details: Homo sapiens, averaged, quadruplicate, upper limit 10^−5 M, read-out: negative log10 GI50 (converted)
# NCI-H460 = assay: NCI 60-cell screen; assay type: cell-based, human; details: Homo sapiens, averaged, quadruplicate, upper limit 10^−5 M, read-out: negative log10 GI50 (converted)
# HOP-92 = assay: NCI 60-cell screen; assay type: cell-based, human; details: Homo sapiens, averaged, quadruplicate, upper limit 10^−5 M, read-out: negative log10 GI50 (converted)
# [5] = test system: Enterobacter cloacae (ATCC 13047); assay: Antimicrobial disk diffusion; assay type: cell-based
# [6] = test system: Penicillin-resistant N. gonorrhoeae (clinical isolate); assay: Antimicrobial disk diffusion; assay type: cell-based; details: listed as 5
# [7] = test system: Cryptococcus neoformans (ATCC 90112); assay: Antimicrobial disk diffusion; assay type: cell-based
# PC-3 = assay: NCI 60-cell screen; assay type: cell-based, human; details: Homo sapiens, averaged, quadruplicate, upper limit 10^−5 M, read-out: negative log10 GI50 (converted)
# OVCAR-3 = assay: NCI 60-cell screen; assay type: cell-based, human; details: Homo sapiens, averaged, quadruplicate, upper limit 10^−5 M, read-out: negative log10 GI50 (converted)
# [8] = test system: Candida albicans (ATCC 90028); assay: Antimicrobial disk diffusion; assay type: cell-based
# 786-O = assay: NCI 60-cell screen; assay type: cell-based, human; details: Homo sapiens, 786-0, averaged, quadruplicate, upper limit 10^−5 M, read-out: negative log10 GI50 (converted)
# HL-60 (TB) = assay: NCI 60-cell screen; assay type: cell-based, human; details: Homo sapiens, averaged, quadruplicate, upper limit 10^−5 M, read-out: negative log10 GI50 (converted)
# MDA-MB-435 = assay: NCI 60-cell screen; assay type: cell-based, human; details: Homo sapiens, averaged, quadruplicate, upper limit 10^−5 M, read-out: negative log10 GI50 (converted)
smiles,measurement,setting,value
"C/C=C(/C)C(=O)OC[C@H]1C2=C(C=C3[C@H]4c5c(O)c(OC)c(C)c(O)c5C(=O)[C@@H](C(=O)N31)N4C)C(=O)C(C)=C(OC)C2=O [Cribrostatin 4, cribrostatin 4]",GI50,U251,6.46 µM
same,GI50,LOX IMVI,3.31 µM
same,GI50,RXF-393,5.25 µM
same,Minimum inhibitory concentration,[1],* (No inhibition at 100 μg/disk)
same,Minimum inhibitory concentration,[2],12.5-25 μg/disk
same,GI50,SN12C,7.08 µM
same,GI50,T-47D,2.09 µM
same,GI50,SNB-75,5.62 µM
same,GI50,A549/ATCC,8.71 µM
same,Minimum inhibitory concentration,[3],* (No inhibition at 100 μg/disk)
same,Minimum inhibitory concentration,[4],* (No inhibition at 100 μg/disk)
same,GI50,SF-539,5.75 µM
same,GI50,SF-295,8.91 µM
same,GI50,NCI-H460,7.59 µM
same,GI50,HOP-92,8.13 µM
same,Minimum inhibitory concentration,[5],* (No inhibition at 100 μg/disk)
same,Minimum inhibitory concentration,[6],1.56-3.12 μg/disk
same,Minimum inhibitory concentration,[7],* (No inhibition at 100 μg/disk)
same,GI50,PC-3,9.12 µM
same,GI50,OVCAR-3,3.63 µM
same,Minimum inhibitory concentration,[8],* (No inhibition at 100 μg/disk)
same,GI50,786-O,6.17 µM
same,GI50,HL-60 (TB),5.37 µM
same,melting point,,190 to 192 °C (dec.)
same,GI50,MDA-MB-435,1.82 µM
